ChEMBL document CHEMBL4330123, “Synthesis of 1',2'-methano-2',3'-dideoxynucleosides as potential antivirals” (Bioorg Med Chem Lett, 2019)
Active and inactive are the calls of the source.

Tests used:
SW480 = test: Antiproliferative activity against human SW480 cells up to 100 uM by Celltiter-Glo assay; type: functional, cell-based
Human gammaherpesvirus 4 = test: Antiviral activity against EBV assessed as inhibition of viral replication by cell-based assay; type: functional, organism-based
Cytomegalovirus = test: Antiviral activity against CMV assessed as inhibition of viral replication by cell-based assay; type: functional, organism-based
Human alphaherpesvirus 3 = test: Antiviral activity against VZV assessed as inhibition of viral replication by cell-based assay; type: functional, organism-based
Human alphaherpesvirus 1 = test: Antiviral activity against HSV1 assessed as inhibition of viral replication by cell-based assay; type: functional, organism-based
HCT cell line = test: Antiproliferative activity against human HCT cells up to 100 uM by Celltiter-Glo assay; type: functional, cell-based
A-375 = test: Antiproliferative activity against human A375 cells up to 100 uM by Celltiter-Glo assay; type: functional, cell-based

Nc1ccn([C@@]23C[C@@H]2C[C@@H](CO)O3)c(=O)n1
inactive: Activity (SW480) | inhibition (Human gammaherpesvirus 4) | inhibition (Cytomegalovirus) | inhibition (Human alphaherpesvirus 3) | inhibition (Human alphaherpesvirus 1) | Activity (HCT cell line) | Activity (A-375)

CC(C)OC(=O)[C@H](C)NP(=O)(OC[C@@H]1C[C@H]2C[C@@]2(n2ccc(=O)[nH]c2=O)O1)Oc1ccccc1 (stereo partly drawn)
inactive: Activity (SW480) | inhibition (Human gammaherpesvirus 4) | inhibition (Cytomegalovirus) | inhibition (Human alphaherpesvirus 3) | inhibition (Human alphaherpesvirus 1) | Activity (HCT cell line) | Activity (A-375)

CC(C)OC(=O)[C@H](C)NP(=O)(OC[C@@H]1C[C@H]2C[C@@]2(n2ccc(N)nc2=O)O1)Oc1ccccc1 (stereo partly drawn)
inactive: Activity (SW480) | inhibition (Human gammaherpesvirus 4) | inhibition (Cytomegalovirus) | inhibition (Human alphaherpesvirus 3) | inhibition (Human alphaherpesvirus 1) | Activity (HCT cell line) | Activity (A-375)

O=c1ccn([C@@]23C[C@@H]2C[C@@H](CO)O3)c(=O)[nH]1
inactive: Activity (SW480) | inhibition (Human gammaherpesvirus 4) | inhibition (Cytomegalovirus) | inhibition (Human alphaherpesvirus 3) | inhibition (Human alphaherpesvirus 1) | Activity (HCT cell line) | Activity (A-375)
